System: TGFb/SMAD Signaling Pathway SBE reporter cell line
Assay: TGFb reporter assay (luciferase)
Type: cell-based
Details: 5-6 h preincubation, then TGFb, 18 h, luminescence
Protocol: TGFb/SMAD Signaling Pathway SBE reporter cell line was obtained from BPS Bioscience. Cells were passed/expanded/stored in liquid nitrogen per supplier's instruction with the exception that growth media was changed to DMEM-C with Geneticin (DMEM supplemented with 10% fetal bovine serum, 1× NEAA, 1 mM Pyruvate, 2 mM glutamine, 50 μg/mL penicillin, 50 U/mL streptomycin and 400 ug/mL of Geneticin). The assay media was MEM supplemented with 0.5% fetal bovine serum, 1× NEAA, 1 mM Pyruvate, 50 μg/mL penicillin and 50 U/mL streptomycin.
Reporter cells were harvested from the tissue culture flasks by incubation in small quantity of Versene at room temperature for three to five minutes after the media in the flask was removed and cells rinsed with PBS. Cells were counted and diluted in the assay media at ˜0.8×10^6 cells/mL then 50 uL/well were added to 96-well assay plate. Test samples (at desired concentrations diluted in assay media) were added to assay plate containing the 50 uL/well of cells (or media only), 50 uL per well, and incubated for 5-6 hours at 37° C. in a 5% CO2 humidified incubator. After that time, 15 uL of TGFb diluted to 12.5 ng/mL in the assay media was added to the plate. Controls included TGFb titration (from 25 to 0 ng/mL) without inhibitors, and media only (without cells, inhibitor or TGFb). Plates were incubated at 37° C. in a 5% CO2 humidified incubator for 18 h. Luciferase substrate solution was subsequently added at 75 uL per well, incubated in dark with shaking at room temperature for 10 min, and luminescence was measured using a luminometer.

IC50 | Compound
100 to 1000 nM | Cc1cccc(-c2nc(CNc3ccc4c(c3)CCC4N)[nH]c2-c2ccc3ncnn3c2)n1 (stereo not shown) [Compound 1.5, N^5-((5-([1,2,4]triazolo[1,5-a]pyridin-6-yl)-4-(6-methylpyridin-2-yl)-1H-imidazol-2-yl)methyl)-2,3-dihydro-1H-indene-1,5-diamine]
100 to 1000 nM | Cc1cccc(-c2nc(CNc3cccc4c3CCC4N)[nH]c2-c2ccc3ncnn3c2)n1 (stereo not shown) [Compound 1.6, N^4-((5-([1,2,4]triazolo[1,5-a]pyridin-6-yl)-4-(6-methylpyridin-2-yl)-1H-imidazol-2-yl)methyl)-2,3-dihydro-1H-indene-1,4-diamine]
10 to 100 nM | Cc1cccc(-c2nc(CNC34CC(C3)C4)[nH]c2-c2ccc3ncnn3c2)n1 [Compound 1.9, N-((5-([1,2,4]triazolo[1,5-a]pyridin-6-yl)-4-(6-methylpyridin-2-yl)-1H-imidazol-2-yl)methyl)bicyclo-[1.1.1]pentan-1-amine]
10 to 100 nM | Cc1cccc(-c2nc(CNC3CCCOC3)[nH]c2-c2ccc3ncnn3c2)n1 (stereo not shown) [Compound 1.15, 1-(5-([1,2,4]triazolo[1,5-a]pyridin-6-yl)-4-(6-methylpyridin-2-yl)-1H-imidazol-2-yl)-N-(3-tetrahydropyranyl)methanamine]
10 to 100 nM | Cc1cccc(-c2nc(CNC3CCCCC3C)[nH]c2-c2ccc3ncnn3c2)n1 (stereo not shown) [Compound 1.16, 1-(5-([1,2,4]triazolo[1,5-a]pyridin-6-yl)-4-(6-methylpyridin-2-yl)-1H-imidazol-2-yl)-N-(2-methylcyclohexyl)methanamine]
100 to 1000 nM | Cc1cccc(-c2nc(CNc3cccc4c3C(N)CC4)[nH]c2-c2ccc3ncnn3c2)n1 (stereo not shown) [Compound 1.20, N7-((5-([1,2,4]triazolo[1,5-a]pyridin-6-yl)-4-(6-methylpyridin-2-yl)-1H-imidazol-2-yl)methyl)-2,3-dihydro-1H-indene-1,7-diamine]
100 to 1000 nM | Cc1cccc(-c2nc(CNc3ccc4c(c3)C(N)CC4)[nH]c2-c2ccc3ncnn3c2)n1 (stereo not shown) [Compound 1.21, N6-((5-([1,2,4]triazolo[1,5-a]pyridin-6-yl)-4-(6-methylpyridin-2-yl)-1H-imidazol-2-yl)methyl)-2,3-dihydro-1H-indene-1,6-diamine]
100 to 1000 nM | CC(=O)NC1Cc2cccc(NCc3nc(-c4cccc(C)n4)c(-c4ccc5ncnn5c4)[nH]3)c2C1 (stereo not shown) [Compound 1.23, N-(4-(((5-([1,2,4]triazolo[1,5-a]pyridin-6-yl)-4-(6-methylpyridin-2-yl)-1H-imidazol-2-yl)methyl)amino)-2,3-dihydro-1H-inden-2-yl)acetamide]
1000 to 10000 nM | Cc1cccc(-c2nc(CNC3CCCNC3)[nH]c2-c2ccn3ncnc3c2)n1 (stereo not shown) [Compound 1.38, N-((5-([1,2,4]triazolo[1,5-a]pyridin-7-yl)-4-(6-methylpyridin-2-yl)-1H-imidazol-2-yl)methyl)piperidin-3-amine]
1000 to 10000 nM | Cc1cccc(-c2nc(CNC3CCNCC3)[nH]c2-c2ccn3ncnc3c2)n1 [Compound 1.39, N-((5-([1,2,4]triazolo[1,5-a]pyridin-7-yl)-4-(6-methylpyridin-2-yl)-1H-imidazol-2-yl)methyl)piperidin-4-amine]
100 to 1000 nM | Cc1cccc(-c2nc(C3CCCNC3)[nH]c2-c2ccc3ncnn3c2)n1 (stereo not shown) [Compound 1.48, 6-(4-(6-methylpyridin-2-yl)-2-(piperidin-3-yl)-1H-imidazol-5-yl)-[1,2,4]triazolo[1,5-a]pyridine]
100 to 1000 nM | Cc1cccc(-c2nc(C3CCCCN3)[nH]c2-c2ccc3ncnn3c2)n1 (stereo not shown) [Compound 1.49, 6-(4-(6-methylpyridin-2-yl)-2-(piperidin-2-yl)-1H-imidazol-5-yl)-[1,2,4]triazolo[1,5-a]pyridine]
100 to 1000 nM | Cc1cccc(-c2nc(C3CCNC3)[nH]c2-c2ccc3ncnn3c2)n1 (stereo not shown) [Compound 1.50, 6-(4-(6-methylpyridin-2-yl)-2-(pyrrolidin-3-yl)-1H-imidazol-5-yl)-[1,2,4]triazolo[1,5-a]pyridine]
